Source: US7754685B2, “Methods and pharmaceutical compositions for the treatment and prevention of hepatitis C infection” (Scynexis, Inc., priority 2005, dated 2010)
pEC50, pIC50: −log10 of the molar value. Where two headings read alike, the source gives them in different places.

Tests used:
HCV RNA replicon ET [1] = assay: HCV RNA replicon drug-drug combination (checkerboard, MacSynergy II) antiviral synergy; type: cell-based
Description: Compounds and combinations were evaluated in the HCV replicon assay described in Example 2 with changes indicated below.
(§1) The HCV RNA replicon antiviral evaluation assay was utilized to examine the efficacy and cytotoxicity of two compounds (e.g., Drug 1 and Drug 2) in combinations of five versus nine half-log concentrations. The assay was performed using a microtiter plate format for allocation of media, drug, cells, and virus. […] Cells were processed 72 hr later when the cells were still sub-confluent. […] The cytotoxicity was evaluated as the concentration of the drug that reduced cell numbers as described in Example 2.
Compounds of this invention were tested as “Drug 2” at nine concentrations between 0.0078 to 2.0 μM. Interferon-alpha (Sigma) was tested as Drug 1 at 0.005 to 0.5 international units per mL (IU/mL). The data obtained from these checkerboard assays were analyzed with the MacSynergy II (v2.01) (Prichard & Shipman, 1990, Antiviral Res. 14:181-205) and Delta Graph (v1.5d) programs. Each data point used to create three-dimensional plots (FIGS. 1A-1C) was derived from the result of triplicate samples. The statistical relevance of the data was analyzed and plotted at one of three confidence levels (68%, 95% or 99%) to display combinatorial results as additive, synergistic or antagonistic.
Effects of the drug combinations were calculated based on the activity of each compound when tested alone. The expected additive antiviral protection was subtracted from the experimentally determined antiviral activity at each combination concentration resulting in a positive value (synergy), a negative value (antagonism) or zero (additive). […] Slightly synergistic activity and highly synergistic activity have been operationally defined as yielding synergy volumes of 50-100 and >100, respectively.
(§2) Compounds and combinations were evaluated in the HCV replicon assay described in Example 5 with changes noted below.
as §2
(§3) Effects of the drug combinations were calculated based on the activity of each compound when tested alone. The expected additive antiviral protection was subtracted from the experimentally determined antiviral activity at each combination concentration resulting in a positive value (synergy), a negative value (antagonism), or zero (additivity). The results of the combination assays are presented three dimensionally at each combination concentration, yielding a surface of activity extending above (synergy) or below (antagonism) the plane of additivity. The volume of the surface is calculated and expressed as a synergy volume (in units of concentration times concentration times percent; e.g. μM2%, nM2%, nMμM %, etc.) calculated at the 95% confidence interval.

[2] = tested on: human hepatoma cell line ET; settings: for IC90: read-out: Cytotoxicity IC90
Description: The compounds were dissolved in DMSO at five half-log concentrations each, ranging from either 0.02 to 2.0 μM, 0.03 to 3 μM, 2.0 to 20 μM, or 1 to 100 μM. Subconfluent cultures of the ET line were plated out into 96 well plates dedicated for the analysis of cell numbers (cytotoxicity) or antiviral activity and the next day the compounds were added to the appropriate wells. The cells were processed 72 h later when the cells were still subconfluent. […] Cytotoxicity was expressed as IC50 and IC90, the concentration of compound that inhibited cell viability by 50% and 90%, respectively. Compound IC50 and IC90 values were calculated using a colorimetric assay as an indication of cell numbers and cytotoxicity. […] Cyclosporine was also tested by way of comparison.
For single-compound assays, the compounds were dissolved in DMSO at five half-log concentrations each, ranging from either 0.02 to 2 μM or 0.2 to 20 μM. Compound EC50 and EC90 values, as well as IC50 and IC90 values, were determined according to Example 2. […] Cyclosporine A was also tested.

[3] = tested on: human hepatoma cell line ET; assay: HCV RNA replicon drug-drug combination, cytotoxicity volume; settings: in combination with Compound 3; FIG. 3B
Description: as §1, §2, §3

[4] = tested on: Madin-Darby bovine kidney (MDBK) cells; assay: BVDV drug-drug combination assay, cytotoxicity to target cells; type: cell-based; settings: in combination with IFN-α
Description: Phenazine methosulfate (PMS) solution was prepared at 0.15 mg/mL in PBS and stored in the dark at −20° C. XTT/PMS stock was prepared immediately before use by adding 40 μL of PMS per ml of XTT solution. Fifty microliters of XTT/PMS was added to each well of the plate and the plate was reincubated for 4 hours at 37° C. Plates were sealed with adhesive plate sealers and shaken gently or inverted several times to mix the soluble formazan product and the plate was read spectrophotometrically at 450/650 nm with a Molecular Devices Vmax plate reader.

HCV = settings: interferon as single agent or with ribavirin; cited from earlier work
[5] = tested on: Bovine Viral Diarrhea Virus (BVDV), NADL strain; assay: BVDV cytopathic effect drug-drug combination assay in MDBK cells (XTT), antiviral; type: cell-based; settings: in combination with IFN-α
HCV RNA replicon ET [6] = assay: HCV RNA replicon assay in ET cell line, luciferase (LUC) endpoint, antiviral activity; type: cell-based; settings: Hepatitis C virus; Example 6 (2′-C-methyl-cytidine combination experiment), single compound; read-out: EC50 of compound alone
Description: The compounds of the present invention were tested for activity against HCV using the methods adapted from those described by Kriger et al., 2001, Journal of Virology, 75:4614-4624, Pietschmann et al., 2002, Journal of Virology 76:4008-4021, and using HCV RNA constructs as described in U.S. Pat. No. 6,630,343. The contents of these references are hereby incorporated by reference in their entireties.
Compounds were examined in the human hepatoma cell line ET (lub ubi neo/ET), a HCV RNA replicon containing a stable luciferase (LUC) reporter. The HCV RNA replicon ET contains the 5′ end of HCV (with the HCV Internal Ribosome Entry Site (IRES) and the first few amino acids of the HCV core protein) which drives the production of a firefly luciferase (LUC), ubiquitin, and neomycin phosphotransferase (NeoR) fusion protein. Ubiquitin cleavage releases the LUC and NeoR proteins. The EMCV IRES element controls the translation of the HCV, […] NS3-NS5. The NS3 protein cleaves the HCV polyprotein to release the mature NS3, NS4A, NS4B, NS5A and NS5B proteins that are required for HCV replication. At the 3′ end of the replicon is the authentic 3′ NTR of HCV.
Cyclosporine A was also tested.

[7] = in combination with IFNα, 95% confidence interval
[8] = read-out: Cytotoxicity IC50, Example 2, ET cells, 72 h, colorimetric assay
[9] = Example 2, ET cells, 72 h, colorimetric assay
[10] = read-out: IC50 of compound alone (cytotoxicity), Example 5 (IFNα combination experiment), single compound
[11] = in combination with 2′-C-methyl-cytidine, 95% confidence interval

Compound | antiviral synergy volume (HCV RNA replicon ET [1]; [7]) [IU/mLμM %] | pIC50 [2, 8] | IC90 [2, 9] [nM] | pIC50 [2, 10] | cytotoxicity interaction of the combination [4] | other results
CC=CCC(C)C(O)C1C(=O)NC(CC)C(=O)N(C)C(OC)C(=O)N(C)C(CC(C)(C)O)C(=O)NC(C(C)C)C(=O)N(C)C(CC(C)C)C(=O)NC(C)C(=O)NC(C)C(=O)N(C)C(CC(C)C)C(=O)N(C)C(CC(C)C)C(=O)N(C)C(C(C)C)C(=O)N1C (stereo not shown) [Compound T, 3-(methoxy)-4-(gamma-hydroxymethylleucine)cyclosporin] | 6 | < 5.70 | > 2000 | < 5.70 |  | 
CC=CCC(C)C(O)C1C(=O)NC(CC)C(=O)N(C)C(SCCN(C)C)C(=O)N(C)C(CC(C)(C)O)C(=O)NC(C(C)C)C(=O)N(C)C(CC(C)C)C(=O)NC(C)C(=O)NC(C)C(=O)N(C)C(CC(C)C)C(=O)N(C)C(CC(C)C)C(=O)N(C)C(C(C)C)C(=O)N1C [Compound O, 3-[(R)-2-(N,N-dimethylamino)ethylthio-Sar]-4-(gamma-hydroxymethylleucine)cyclosporin] | 122 | 4.87 | > 20000 | < 5.70 | Antagonistic cytotoxicity | antiviral synergy volume (HCV RNA replicon ET [1]; [11]): 228 μM^2%; drug interaction (antiviral) of the combination (HCV RNA replicon ET [1]; [11]): highly synergistic (Slightly synergistic activity and highly synergistic activity have been operationally defined as yielding synergy volumes of 50-100 and >100, respectively); drug interaction (antiviral) of the combination (HCV RNA replicon ET [1]; in combination with Compound 3 (HCV NS3-4A protease inhibitor), FIG. 3A): additive or mildly synergistic; drug interaction (antiviral) of the combination (HCV RNA replicon ET [1]; [7]): highly synergistic (Slightly synergistic activity and highly synergistic activity have been operationally defined as yielding synergy volumes of 50-100 and >100, respectively); cytotoxicity interaction of the combination [3]: antagonistic cytotoxicity; pIC50 ([2]; read-out: IC50 of compound alone (cytotoxicity), Example 6, single compound): < 5.70
interferon |  |  |  |  |  | share of the subject population in which the virus is eradicated (HCV): 33-46%
CC=CCC(C)C(O)C1C(=O)NC(CC)C(=O)N(C)C(OCCN(C)C)C(=O)N(C)C(CC(C)C)C(=O)NC(C(C)C)C(=O)N(C)C(CC(C)C)C(=O)NC(C)C(=O)NC(C)C(=O)N(C)C(CC(C)C)C(=O)N(C)C(CC(C)C)C(=O)N(C)C(C(C)C)C(=O)N1C (stereo not shown) [C, 3-(2-N,N-dimethylaminoethoxy)cyclosporin] |  |  |  |  | Antagonistic cytotoxicity | drug interaction, anti-BVDV [5]: Additive
C[C@@]1(O)[C@H](O)[C@@H](CO)O[C@H]1n1ccc(N)nc1=O [2′-C-methyl-cytidine, reference compound] |  |  |  |  |  | pEC50 (HCV RNA replicon ET [6]): 6.12
